The term IC50 denotes the point on the concentration scale where inhibition reaches its midpoint.

The target of the test is Rho-associated protein kinase 2 (Homo sapiens, UniProt O75116). Kind of test: In Vitro Assay: The effectiveness of compounds of the present invention as ROCK inhibitors can be determined in a 30 μL assay containing 20 mM HEPES, pH 7.5, 20 mM MgCl2, 0.015% Brij-35, 4 mM DTT, 5 μM ATP and 1.5 μM peptide substrate (FITC-AHA-AKRRRLSSLRA-OH) (SEQ ID No. 1). Compounds were dissolved in DMSO so that the final concentration of DMSO was <2%, and the reaction was initiated with Rho kinase variants. After incubation, the reaction was terminated by the addition of EDTA and the phosphorylated and non-phosphorylated peptides separated using a LABCHIP® 3000 Reader (Caliper Life Sciences). […] Compounds were tested in dose-response format, and the inhibition of kinase activity was calculated at each concentration of compound. The inhibition data were fit using a curve-fitting program to determine the IC50; i.e., the concentration of compound required to inhibit 50% of kinase activity.
Chain of Rho-associated protein kinase 2 (O75116 whole entry, looked up, change not shown): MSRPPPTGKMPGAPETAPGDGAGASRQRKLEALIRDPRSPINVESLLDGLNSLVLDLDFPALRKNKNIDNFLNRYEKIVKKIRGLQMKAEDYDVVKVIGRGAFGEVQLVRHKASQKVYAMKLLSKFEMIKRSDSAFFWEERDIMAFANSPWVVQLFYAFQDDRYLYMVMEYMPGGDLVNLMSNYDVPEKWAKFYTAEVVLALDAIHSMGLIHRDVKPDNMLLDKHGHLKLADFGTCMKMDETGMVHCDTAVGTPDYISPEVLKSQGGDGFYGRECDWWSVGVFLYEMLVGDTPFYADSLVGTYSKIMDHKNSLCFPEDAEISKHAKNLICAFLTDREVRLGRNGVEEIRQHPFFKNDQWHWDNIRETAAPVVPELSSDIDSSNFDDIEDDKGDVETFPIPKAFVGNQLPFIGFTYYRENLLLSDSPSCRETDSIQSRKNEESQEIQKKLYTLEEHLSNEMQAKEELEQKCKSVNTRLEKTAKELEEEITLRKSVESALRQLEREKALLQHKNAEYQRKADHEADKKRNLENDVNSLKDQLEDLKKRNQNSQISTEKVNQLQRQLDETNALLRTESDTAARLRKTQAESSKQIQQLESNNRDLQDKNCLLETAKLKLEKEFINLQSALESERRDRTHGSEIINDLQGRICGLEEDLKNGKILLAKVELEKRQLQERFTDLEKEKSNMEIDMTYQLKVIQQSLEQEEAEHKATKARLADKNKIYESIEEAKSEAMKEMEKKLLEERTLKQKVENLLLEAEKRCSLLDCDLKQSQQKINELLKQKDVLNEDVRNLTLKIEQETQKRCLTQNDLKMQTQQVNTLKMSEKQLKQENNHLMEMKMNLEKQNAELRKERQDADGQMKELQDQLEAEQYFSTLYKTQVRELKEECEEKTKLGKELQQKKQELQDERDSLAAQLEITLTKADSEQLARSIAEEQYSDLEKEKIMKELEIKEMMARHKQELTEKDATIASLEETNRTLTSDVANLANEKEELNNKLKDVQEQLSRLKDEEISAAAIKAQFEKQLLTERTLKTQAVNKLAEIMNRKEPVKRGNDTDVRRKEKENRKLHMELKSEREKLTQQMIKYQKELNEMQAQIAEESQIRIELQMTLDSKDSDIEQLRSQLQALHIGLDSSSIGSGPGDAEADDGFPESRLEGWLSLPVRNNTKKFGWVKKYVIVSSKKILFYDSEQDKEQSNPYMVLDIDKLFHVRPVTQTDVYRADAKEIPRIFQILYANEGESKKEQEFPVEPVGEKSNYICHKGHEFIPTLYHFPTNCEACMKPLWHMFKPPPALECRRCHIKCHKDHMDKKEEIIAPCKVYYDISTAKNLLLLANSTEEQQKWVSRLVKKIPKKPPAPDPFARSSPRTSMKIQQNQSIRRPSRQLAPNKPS

As to `N#Cc1cnc(NC2CC3(C2)CC(Oc2ncccc2C(N)=O)C3)nc1` (stereo unspecified), the IC50 was 1.51 µM.

(Values after ChEMBL document CHEMBL5729054, “Five membered-aminoheterocycle and 5,6-or 6,6-membered bicyclic aminoheterocyclic inhibitors of rock for the treatment of heart failure” (2022).)
